# Results as given in ChEMBL document CHEMBL6178015, “Discovery of a Novel Serine-Targeting Covalent Inhibitor against HCES2A for Treating Drug-induced Diarrhea and Ulcerative Colitis” (J Med Chem, 2025).
# Assays:
# [1] = Inhibition of human CES2A using fluorescein diacetate as substrate preincubated for 3 mins followed by substrate addition and measured after 30 mins by fluorescence microplate reader
# Homo sapiens = species on record: Homo sapiens; assay: Selectivity index, ratio of IC50 for inhibition of human CES1A to IC50 for inhibition of human CES2A
# [2] = Inhibition of human CES1A using NLMe as substrate preincubated for 3 mins followed by substrate addition and measured after 20 mins by chemiluminescence analysis
IC50 [1] [nM],SMILES,Ratio IC50 (Homo sapiens),IC50 [2] [nM]
1.55,CCCCCCC(=O)c1c(C)ccc2oc(-c3cc(OC)ccc3O)cc12,,
3640,CCCCCCC(=O)c1cccc2oc(-c3cc(C)ccc3NC(=O)OCc3ccccc3)cc12,,
983,CCCC(=O)c1cccc2oc(-c3cc(C)ccc3NC(=O)OCCCl)cc12,,
944,CCCCCCC(=O)c1cccc2oc(-c3ccccc3N)cc12,,
1.04,CCCCCCC(=O)c1cccc2oc(-c3cc(C)ccc3NC(=O)OCC(C)C)cc12,> 9600,> 10000
3110,CCCC(=O)c1cccc2oc(-c3cc(C)ccc3N)cc12,,
881,CCCCCCCCC(=O)c1cccc2oc(-c3ccccc3N)cc12,,
> 10000,CCCCCCOC(=O)Nc1ccccc1-c1cc2c(C(=O)CCCCCC)cccc2o1,,
736,CCCCCCCCC(=O)c1cccc2oc(-c3cc(C)ccc3N)cc12,,
612,CCCCCCC(=O)c1cccc2oc(-c3cc(C)ccc3N)cc12,,
596,C=CCOC(=O)Nc1ccccc1-c1cc2c(C(=O)CCCCCC)cccc2o1,,
1340,CCCCCCC(=O)c1cccc2oc(-c3ccccc3NC(=O)OCC(CC)CCCC)cc12 (stereo not drawn),,
0.542,CCCCCCCCC(=O)c1cccc2oc(-c3cc(OC)ccc3OC(=O)N3CCOCC3)cc12,53.9,29.2

SMILES,IC50 [1] [nM],Ratio IC50 (Homo sapiens),IC50 [2] [nM]
CCCCCCC(=O)c1cccc2oc(-c3cc(OC)ccc3OC(=O)N(C)C)cc12,0.509,44.8,22.9
CCCCCCCCC(=O)c1cccc2oc(-c3cc(OC)ccc3OC(=O)N(C)C)cc12,0.189,1260,239
